EC50 data for 31 compounds are collected here from patent US9663496B2, “AMPK-activating heterocyclic compounds and methods for using the same” (Rigel Pharmaceuticals, Inc., priority 2010, dated 2017).

Where only a bound is given, the exact number is not on record here.

What is called EC50 is the concentration giving half of the maximal effect.

This experiment has as its target AMPK. The experiment is described as follows: AMPK activation, enzyme-linked immunosorbent assay. The following applies: EC50 for AMPK activation, ELISA. It is filed as biochemical. A digest of the protocol:
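Kit-based immunoassay; compounds screened as activators; standard reagents and protocol.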
In general terms: ELISA stands for enzyme-linked immunosorbent assay.
For the compound `COc1ccc(CN2CCC(NC(=O)c3ccc(C(=O)N4CCC(Oc5ccc(S(C)(=O)=O)cc5)CC4)cn3)CC2)cc1` [Compound 202, N-(1-(4-methoxybenzyl)piperidin-4-yl)-5-(4-(4-(methylsulfonyl)phenoxy)piperidine-1-carbonyl)picolinamide], the EC50 was less than 500 nM. `CC(=O)c1ccc(Oc2ccc(NC(=O)c3ccc(C(=O)N4CCC(Oc5ccc(S(=O)(=O)C6CC6)cc5)CC4)nc3)cn2)cc1` [Compound 486, N-(6-(4-acetylphenoxy)pyridin-3-yl)-6-(4-(4-(cyclopropylsulfonyl)phenoxy)piperidine-1-carbonyl)nicotinamide] returned an EC50 of less than 500 nM. As to `N#Cc1ccc(OC2CCN(C(=O)c3ccc(C(=O)N[C@H]4CC[C@@H](Oc5ccc(F)cc5)CC4)cn3)CC2)cc1` [Compound 324, 6-(4-(4-cyanophenoxy)piperidine-1-carbonyl)-N-((cis)-4-(4-fluorophenoxy)cyclohexyl)nicotinamide], the EC50 is less than 500 nM. On to `CC(=O)c1ccc(Oc2ccc(NC(=O)c3ccc(C(=O)N4CCN(c5ccc(S(C)(=O)=O)cc5)CC4)nc3)cn2)cc1` [Compound 487, N-(6-(4-acetylphenoxy)pyridin-3-yl)-6-(4-(4-(methylsulfonyl)phenyl)piperazine-1-carbonyl)nicotinamide], for which the EC50 lay within 1000 to 5000 nM. For the compound `O=C(Nc1ccc(Oc2ccc(F)cc2)nc1)c1ccc(C(=O)N2CCC(Oc3ccc(S(=O)(=O)C4CC4)cc3)CC2)nc1` [Compound 247, 6-(4-(4-(cyclopropylsulfonyl)phenoxy)piperidine-1-carbonyl)-N-(6-(4-fluorophenoxy)pyridin-3-yl)nicotinamide], the EC50 was less than 500 nM. In the case of `COc1ccc(Oc2ccc(NC(=O)c3ccc(C(=O)N4CCN(Cc5ccc(F)cc5)CC4)cn3)cc2)cc1` [Compound 54, 5-(4-(4-fluorobenzyl)piperazine-1-carbonyl)-N-(4-(4-methoxyphenoxy)phenyl)picolinamide], the EC50 is less than 500 nM. The compound `COc1ccc(C(=O)C2CCN(C(=O)c3ccc(C(=O)Nc4ccc(Oc5ccc(C#N)cc5)nc4C)cn3)CC2)cc1` [Compound 478, N-(6-(4-cyanophenoxy)-2-methylpyridin-3-yl)-6-(4-(4-methoxybenzoyl)piperidine-1-carbonyl)nicotinamide] showed an EC50 of less than 500 nM. In turn, `N#Cc1ccc(CN2CCC(NC(=O)c3ccc(C(=O)N4CCC(Oc5ccc([N+](=O)[O-])cc5)CC4)nc3)CC2)cc1` [Compound 363, N-(1-(4-cyanobenzyl)piperidin-4-yl)-6-(4-(4-nitrophenoxy)piperidine-1-carbonyl)nicotinamide] returned an EC50 of less than 500 nM.

Turning to `COc1ccc(C(=O)C2CCN(C(=O)c3ccc(C(=O)NC4CCN(Cc5ccc(S(C)(=O)=O)cc5)CC4)cn3)CC2)cc1` [Compound 215, 6-(4-(4-methoxybenzoyl)piperidine-1-carbonyl)-N-(1-(4-(methylsulfonyl)benzyl)piperidin-4-yl)nicotinamide], the EC50 is more than 10000 nM. For `O=C(NC1CCN(Cc2cc(F)cc(F)c2)CC1)c1ccc(C(=O)N2CC[C@H](Oc3ccc(F)cc3)C2)cn1` [Compound 292, N-(1-(3,5-difluorobenzyl)piperidin-4-yl)-5-((S)-3-(4-fluorophenoxy)pyrrolidine-1-carbonyl)picolinamide], the half-maximal effective concentration (EC50) is less than 500 nM. The figure for `CS(=O)(=O)c1ccc(C(=O)C2CCN(C(=O)c3ccc(C(=O)N[C@@H]4CCN(Cc5ccc(OC(F)(F)F)cc5)C[C@H]4F)nc3)CC2)cc1` (relative stereo) [Compound 253, N-((trans)-3-fluoro-1-(4-(trifluoromethoxy)benzyl)piperidin-4-yl)-5-(4-(4-(methylsulfonyl)benzoyl)piperidine-1-carbonyl)picolinamide] is 500 to 1000 nM.

`O=C(NC1CCN(Cc2cccc(OC(F)(F)F)c2)CC1)c1ccc(C(=O)N2CCC(C(=O)c3ccc(N4CCCC4)cc3)CC2)nc1` [Compound 441, 6-(4-(4-(pyrrolidin-1-yl)benzoyl)piperidine-1-carbonyl)-N-(1-(3-(trifluoromethoxy)benzyl)piperidin-4-yl)nicotinamide] came in with a 50% effective concentration (EC50) of less than 500 nM. Turning to `N#Cc1ccc(CN2CCC(NC(=O)c3ccc(C(=O)N4CCCCC4Cc4ccc(F)cc4)cn3)CC2)cc1` (stereo not shown) [Compound 153, N-(1-(4-cyanobenzyl)piperidin-4-yl)-5-(2-(4-fluorobenzyl)piperidine-1-carbonyl)picolinamide], the EC50 lay in the range of 1000 to 5000 nM. The figure for `O=C(c1cccc(C(=O)N2CCN(Cc3ccc(F)cc3)CC2)n1)N1CCN(CCc2ccccc2)CC1` [Compound 93, (4-(4-fluorobenzyl)piperazin-1-yl)(6-(4-phenethylpiperazine-1-carbonyl)pyridin-2-yl)methanone] is more than 10000 nM; for `N#Cc1ccc(CN2CCC(NC(=O)c3ccc(C(=O)N4CCC(Oc5ccc(F)cc5F)CC4)nc3)CC2)cc1` [Compound 345, N-(1-(4-cyanobenzyl)piperidin-4-yl)-6-(4-(2,4-difluorophenoxy)piperidine-1-carbonyl)nicotinamide] it is less than 500 nM.

Compound `N#Cc1ccc(CN2CCC(NC(=O)c3ccc(C(=O)N4CC[C@H](Oc5ccc(F)cc5)C4)cn3)CC2)cc1` [Compound 270, (S)—N-(1-(4-cyanobenzyl)piperidin-4-yl)-5-(3-(4-fluorophenoxy)pyrrolidine-1-carbonyl)picolinamide] showed an EC50 of less than 500 nM. The figure for `N#Cc1ccc(CN2CCC(NC(=O)c3ccc(C(=O)N4CCN(C5CCOCC5)CC4)cn3)CC2)cc1` [Compound 83, N-(1-(4-cyanobenzyl)piperidin-4-yl)-5-(4-(tetrahydro-2H-pyran-4-yl)piperazine-1-carbonyl)picolinamide] is more than 10000 nM; for `N#Cc1ccc(OC2CCN(C(=O)c3ccc(C(=O)NC4CCN(Cc5cc(F)cc(F)c5)CC4)nc3)CC2)cc1` [Compound 289, 5-(4-(4-cyanophenoxy)piperidine-1-carbonyl)-N-(1-(3,5-difluorobenzyl)piperidin-4-yl)picolinamide] it is less than 500 nM.

As to `O=C(c1ccc(C(=O)N2CCN(CCc3ccccc3)CC2)nc1)N1CCN(c2ccccc2)CC1` [Compound 90, (4-phenethylpiperazin-1-yl)(5-(4-phenylpiperazine-1-carbonyl)pyridin-2-yl)methanone], the EC50 was more than 10000 nM. The compound `N#Cc1ccc(Oc2ccc(NC(=O)c3ccc(C(=O)N4CCC(C(=O)c5ccc(F)cc5F)CC4)nc3)nc2)cc1` [Compound 469, N-(5-(4-cyanophenoxy)pyridin-2-yl)-6-(4-(2,4-difluorobenzoyl)piperidine-1-carbonyl)nicotinamide] returned an EC50 of less than 500 nM. `N#Cc1ccc(CN2CCC(NC(=O)c3ccc(C(=O)N4CC[C@H](Oc5ccc(C#N)cc5)[C@@H](F)C4)cn3)CC2)cc1` (relative stereo) [Compound 279, N-(1-(4-cyanobenzyl)piperidin-4-yl)-5-((trans)-4-(4-cyanophenoxy)-3-fluoropiperidine-1-carbonyl)picolinamide]: the concentration giving a half-maximal response (EC50) was less than 500 nM. The figure for `N#Cc1ccc(CN2CCC(NC(=O)c3ccc(C(=O)N4CCCC(Oc5ccc(C#N)cc5)C4)cn3)CC2)cc1` (stereo not shown) [Compound 137, N-(1-(4-cyanobenzyl)piperidin-4-yl)-5-(3-(4-cyanophenoxy)piperidine-1-carbonyl)picolinamide] is less than 500 nM; for `O=C(Nc1ccc(Oc2ccc(F)cc2)nc1)c1ccc(C(=O)N2CCC(Oc3ccc(C(=O)C4CC4)cc3)CC2)nc1` [Compound 457, 6-(4-(4-(cyclopropanecarbonyl)phenoxy)piperidine-1-carbonyl)-N-(6-(4-fluorophenoxy)pyridin-3-yl)nicotinamide] it is less than 500 nM; for `N#Cc1ccc(CN2CCC(NC(=O)c3ccc(C(=O)N4CCC(C(=O)c5ccc(-n6cccn6)cc5)CC4)nc3)CC2)cc1` [Compound 393, 6-(4-(4-(1H-pyrazol-1-yl)benzoyl)piperidine-1-carbonyl)-N-(1-(4-cyanobenzyl)piperidin-4-yl)nicotinamide] it is less than 500 nM.

`N#Cc1ccc(CN2CCC(NC(=O)c3cccc(C(=O)NC4CCN(Cc5ccc(C#N)cc5)CC4)n3)CC2)cc1` [Compound 86, N2,N6-bis(1-(4-cyanobenzyl)piperidin-4-yl)pyridine-2,6-dicarboxamide]: the EC50 lay within 1000 to 5000 nM. In turn, `O=C(NC1CCN(Cc2cc(F)cc(F)c2)CC1)c1ccc(C(=O)N2CCC(C(=O)c3ccc(F)c(F)c3)CC2)cn1` [Compound 298, 5-(4-(3,4-difluorobenzoyl)piperidine-1-carbonyl)-N-(1-(3,5-difluorobenzyl)piperidin-4-yl)picolinamide] gave an EC50 of less than 500 nM.

For the compound `N#Cc1ccc(OC2CCN(C(=O)c3ccc(C(=O)NC4CCN(Cc5nccs5)CC4)cn3)CC2)cc1` [Compound 356, 6-(4-(4-cyanophenoxy)piperidine-1-carbonyl)-N-(1-(thiazol-2-ylmethyl)piperidin-4-yl)nicotinamide], the concentration giving a half-maximal response (EC50) was less than 500 nM. Compound `N#Cc1ccc(CN2CCC(NC(=O)c3ccc(C(=O)N4CCN(S(=O)(=O)c5ccc(F)cc5)CC4)cn3)CC2)cc1` [Compound 78, N-(1-(4-cyanobenzyl)piperidin-4-yl)-5-(4-(4-fluorophenylsulfonyl)piperazine-1-carbonyl)picolinamide] came in with an EC50 of less than 500 nM. In the case of `N#Cc1ccc(OC2CCN(C(=O)c3ccc(C(=O)NC4CCN(Cc5ccc(N6CCOCC6)cc5)CC4)cn3)CC2)cc1` [Compound 337, 6-(4-(4-cyanophenoxy)piperidine-1-carbonyl)-N-(1-(4-morpholinobenzyl)piperidin-4-yl)nicotinamide], the half-maximal effective concentration (EC50) is less than 500 nM. The figure for `CC(=O)Nc1ccc(OC2CCN(C(=O)c3ccc(C(=O)NC4CCN(Cc5cccc(OC(F)(F)F)c5)CC4)cn3)CC2)cc1` [Compound 428, 6-(4-(4-acetamidophenoxy)piperidine-1-carbonyl)-N-(1-(3-(trifluoromethoxy)benzyl)piperidin-4-yl)nicotinamide] is 500 to 1000 nM; for `CS(=O)(=O)c1ccc(N2CCC(NC(=O)c3ccc(C(=O)N4CCC(Oc5ccc(C#N)cc5)CC4)nc3)CC2)cc1` [Compound 420, 6-(4-(4-cyanophenoxy)piperidine-1-carbonyl)-N-(1-(4-(methylsulfonyl)phenyl)piperidin-4-yl)nicotinamide] it is 1000 to 5000 nM.
